According to patent publication US20150342897A1, “POLYPEPTIDE LOADED POCA NANOPARTICLES FOR ORAL ADMINISTRATION” (Glaxo Group Limited, priority 2012, published 2015):

Test: Reduction in blood glucose levels after single i.v. dose
Assay type: in vivo, C57BL/6 mice
Conditions: single i.v. dose equivalent to 1 μg/100 μl
Description: C57BL/6 mice were given a single i.v. dose of exendin-4 loaded POCA nanoparticles (equivalent to 2 μg peptide/100 μl), non encapsulated (free) exendin-4 peptide (equivalent to 1 μg/100 μl) or saline as a control. In order to monitor blood glucose levels, 2-3 μl blood samples were taken from the peripheral tail vein of each animal prior to dosing and again at 0.5, 1, 2, 3, 4 and 8 hours post dose. Each sample was analysed using a hand held glucose monitor (BAYER […] BREEZE 2TM).

In the case of exendin-4 [non encapsulated exendin-4], the “reduction in blood glucose levels from baseline” value (2 hours post dose, FIG. 3) is reported as ~30% and the “blood glucose levels at 8 hours post dose” value (8 hours post dose) is reported as “returned to baseline”.
